From patent US20100173956A1, “Use of Quaternary Pyridinium Salts as Vasoprotective Agents” (Pharmena Spolka Akcyjna (Pharmena S.A.), priority 2004, published 2010)
“Also recorded” adds a separate entry of the source.

Tests used:
[1] = system: 6-keto-PGF1α (stable PGI2 metabolite); assay: Assay of 6-keto-PGF1α in arterial blood plasma (enzyme immunoassay); format: in vivo, Wistar rats
Experimental: (§1) The analysis of the thrombolytic response in this experimental set-up was complemented by the assay of 6-keto-PGF1α, TXB2 and PGE2 in arterial blood plasma. For this purpose blood samples (500 μl) were collected in Eppendorff tubes with indomethacin to yield its final concentration of 10 μM, and EDTA to yield the final concentration of 1 mM. Then, the blood samples were spinned for 5 min at 2.000×g. Plasma samples were stored at −70° C. The prostanoids were assayed using the enzyme immunoassay kits (Cayman Chemical Co, Ann Arbor, Mich.).

platelet-rich thrombi = assay: Thrombolytic activity in rats with extracorporal circulation (method of Gryglewski); format: in vivo, Wistar rats; details: for thrombolytic response: single injection, fall in weight of thrombi, maximum response
Experimental: Thrombolytic activity of quaternary pyridinium salts was assessed using original method of Gryglewski et al., (Gryglewski R J, Korbut R, Ocetkiewicz A, Stachura J. In vivo method for quantitation for anti-platelet potency of drugs. Naunyn Schmiedebergs Arch Pharmacol 1978; 302:25-30), the scheme of which was shown on FIG. 1.
(§2) Wistar rats of body weight 300-350 g were anaesthetised (thiopental 30 mg kg^−1 i.p.) and heparinised (unfractionated heparin. 800 i.u. kg^−1 i.v.). Arterial blood pressure was measured from cannulated right carotid artery, and extracorporal circulation was established between left carotid artery and left jugular vein. A collagen strip from rabbit tendon of Achilles was superfused with arterial blood in extracorporal circulation at a rate of 1.5 ml min^−1 and its weight was continuously monitored by an auxotonic Harvard transducer.
(§3) During the initial 20-30 min of superfusion the strip was gaining in weight by 80-120 mg because of deposition of platelet-rich thrombi and then in control conditions stayed unchanged during next 3-5 hrs. Thrombolytic response was detected by a fall in weight of a thrombi. Arterial blood pressure was also monitored, so this model enabled the analysis of thrombolytic and hypotensive action of a compound (FIG. 1).

neutrophils = assay: Latex-induced activation of neutrophils; format: cell-based
[2] = Anti-atherogenic effect in dyslipidemic patients (plasma TC, TG, HDL); format: in vivo; details: 30 mg orally three times a day
Experimental: The anti-atherogenic effect of MNA^+ was investigated in 15 dyslipidemic patients. The enrollment criteria were: high level of TG (≧250 mg/dl) and low level of HDL (≦35 mg/dl for male, ≦45 mg/dl for female). The mean age of the patients was 61.4 (range 45-81 years). The patients were treated with MNA^+ for 2 weeks. The MNA^+ was administered orally, three times a day, one capsule (30 mg MNA^+) after meal. The plasma levels of TC, TG, HDL were measured at baseline and after 2 weeks of therapy. The level of LDL was measured in those cases, where it was possible (due to high TG level).

platelets = assay: Collagen-induced aggregation in platelet-rich plasma in vitro; format: cell-based; details: for effect on collagen-induced aggregation of platelets (FIG. 9): FIG. 9, (1 mg/ml)
TXB2 = assay: Assay of TXB2 in arterial blood plasma (enzyme immunoassay); format: in vivo, Wistar rats; details: 30 mg/kg i.v.
Experimental: as §1

PGE2 = assay: Assay of PGE2 in arterial blood plasma (enzyme immunoassay); format: in vivo, Wistar rats; details: 30 mg/kg i.v.
Experimental: as §1

[3] = Arterial blood pressure monitoring (hypotensive action); format: in vivo, Wistar rats
Experimental: as §2, §3

1-Methyl-3-acetylpyridinium salt [MAP^+]
change of 6-keto-PGF1α level / release of PGI2 (in words) ([1]; 30 mg/kg i.v.): associated with the release of PGI2
thrombolytic response (in words) (platelet-rich thrombi; 30 mg/kg i.v.): comparable to that induced by 30 mg/kg of MNA^+

Cn1cc(C(N)=O)ccc1=O [2-PYR, 1-methyl-2-pyridone-5-carboxyamide]
duration of thrombolytic response (transient) (platelet-rich thrombi; 30 mg/kg i.v.): < 15 min
thrombolytic response (in words) (platelet-rich thrombi; 30 mg/kg i.v.): Lack of thrombolytic response; also recorded: failed to induce a significant thrombolytic response; also recorded: did not display a significant thrombolytic activity
thrombolytic response (platelet-rich thrombi; 30 mg/kg i.v.): < 10%

c1ccc2c(c1)[I+]c1ccccc1-2 [DPI, reference compound]
effect on latex-induced activation of neutrophils (FIG. 10) (neutrophils): abrogated

C[n+]1cccc(C(=O)NCO)c1 [MNAF^+, 1-methyl-N′-(hydroxymethyl)nicotinamide]
thrombolytic response (in words) (platelet-rich thrombi; 30 mg/kg i.v.): comparable to that induced by 30 mg/kg of MNA^+

C[n+]1cccc(C(N)=O)c1 [MNA^+, 1-methylnicotinamide]
change of TC level, baseline to 2 weeks [2]: −15.7%
change of TG level, baseline to 2 weeks [2]: −47.1%
increase of HDL level, baseline to 2 weeks [2]: 36.2%
TC plasma level after 2 weeks ([2]; 15 dyslipidemic patients, baseline 267.0 mg/dl): 225.1 mg/dL
HDL plasma level after 2 weeks ([2]; baseline 39.2 mg/dl): 53.4 mg/dL
TG plasma level after 2 weeks ([2]; baseline 472.6 mg/dl): 249.9 mg/dL
TG/HDL ratio after 2 weeks ([2]; baseline 13.9): 5.8
inhibition of latex-induced activation of neutrophils (neutrophils; 1 mM): did not inhibit
effect on latex-induced activation of neutrophils (FIG. 10) (neutrophils): Lack of effect; also recorded: did not inhibit
change of 6-keto-PGF1α level / release of PGI2 (in words) ([1]; 30 mg/kg i.v.): concomitant increase in level of 6-keto-PGF1α
level of 6-keto-PGF1α in arterial plasma ([1]; 30 mg/kg i.v., 15 minutes after injection, before injection 104±7 pg/ml): 460 ± 58 pg/mL
plateau level of 6-keto-PGF1α in arterial plasma ([1]; 30 mg/kg i.v., for at least one hour): around 400 pg/ml
release of 6-keto-PGF1α in the presence of indomethacin ([1]; indomethacin 5 mg/kg): abrogated
effect on collagen-induced aggregation of platelets (FIG. 9) (platelets): Lack of effect; also recorded: did not inhibit
effect on collagen-induced aggregation in platelet-rich plasma (platelets; in vitro, up to concentration of 10 mM): not affected
change of TXB2 level in arterial plasma (TXB2): neither TXB2 nor PGE2 levels changed significantly
thrombolytic response (platelet-rich thrombi; 30 mg/kg i.v.): 42±4%
duration of thrombolytic response (platelet-rich thrombi; 30 mg/kg i.v., response remained at approximately the same level over the observation period): 2 to 3 h
dose dependence of thrombolysis (platelet-rich thrombi; 3-30 mg/kg i.v.): concentration-dependent thrombolysis
dose of maximum thrombolytic response (platelet-rich thrombi; i.v., 3-30 mg/kg tested): 30 mg/kg
thrombolytic response in the presence of indomethacin (platelet-rich thrombi; indomethacin 5 mg/kg): abrogated
change of PGE2 level in arterial plasma (PGE2): neither TXB2 nor PGE2 levels changed significantly
fall in arterial blood pressure ([3]; 30 mg/kg i.v., during thrombolysis): not associated with a fall in arterial blood pressure
hypotension ([3]; 30-300 mg/kg): did not cause hypotension

COc1cc(C(C)=O)ccc1O [apocynin, reference compound]
effect on latex-induced activation of neutrophils (FIG. 10) (neutrophils): abrogated

CC(=O)Oc1ccccc1C(=O)O [aspirin, reference compound]
effect on collagen-induced aggregation of platelets (FIG. 9) (platelets): abrogated

NC(=O)c1cccnc1 [nicotinamide]
change of 6-keto-PGF1α level / release of PGI2 (in words) ([1]; 30 mg/kg i.v.): did not increase
thrombolytic response (in words) (platelet-rich thrombi; 30 mg/kg i.v.): Lack of thrombolytic response; also recorded: failed to induce a significant thrombolytic response
thrombolytic response (platelet-rich thrombi; 30 mg/kg i.v.): 9±0.6%
thrombolytic response (in words) (platelet-rich thrombi; 30 mg/kg i.v., listed as Nicotinamide): did not display a significant thrombolytic activity

O=C(O)c1cccnc1 [nicotinic acid]
change of 6-keto-PGF1α level / release of PGI2 (in words) ([1]; 30 mg/kg i.v.): did not increase
thrombolytic response (in words) (platelet-rich thrombi; 30 mg/kg i.v.): Lack of thrombolytic response; also recorded: failed to induce a significant thrombolytic response; also recorded: did not display a significant thrombolytic activity
thrombolytic response (platelet-rich thrombi; 30 mg/kg i.v.): 5±0.9%

C[n+]1cccc(C(=O)[O-])c1 [trigonelline]
thrombolytic response (in words) (platelet-rich thrombi; 30 mg/kg i.v.): Lack of thrombolytic response; also recorded: failed to induce a significant thrombolytic response; also recorded: did not display a significant thrombolytic activity
thrombolytic response (platelet-rich thrombi; 30 mg/kg i.v.): did not produce any thrombolytic response
